Data taken from US20100168102A9, “Amide Derivatives as Kinase Inhibitors” (Devgen NV, priority 2005, published 2010).
Read-outs that look alike come from different tables or passages of the source. Values belong to the compound of their own block, whether it stands above or below them.

Assays:
PKC epsilon = biological target: T1, PKC epsilon (Homo sapiens, UniProt Q02156); assay: Biochemical assay for PKC epsilon (fluorescence polarization, Protein Kinase C Assay Kit, Red); conditions: read-out: IC50 μM PKCε
T1 construct: purchased Invitrogen P2282
T1 sequence (Q02156 1-737): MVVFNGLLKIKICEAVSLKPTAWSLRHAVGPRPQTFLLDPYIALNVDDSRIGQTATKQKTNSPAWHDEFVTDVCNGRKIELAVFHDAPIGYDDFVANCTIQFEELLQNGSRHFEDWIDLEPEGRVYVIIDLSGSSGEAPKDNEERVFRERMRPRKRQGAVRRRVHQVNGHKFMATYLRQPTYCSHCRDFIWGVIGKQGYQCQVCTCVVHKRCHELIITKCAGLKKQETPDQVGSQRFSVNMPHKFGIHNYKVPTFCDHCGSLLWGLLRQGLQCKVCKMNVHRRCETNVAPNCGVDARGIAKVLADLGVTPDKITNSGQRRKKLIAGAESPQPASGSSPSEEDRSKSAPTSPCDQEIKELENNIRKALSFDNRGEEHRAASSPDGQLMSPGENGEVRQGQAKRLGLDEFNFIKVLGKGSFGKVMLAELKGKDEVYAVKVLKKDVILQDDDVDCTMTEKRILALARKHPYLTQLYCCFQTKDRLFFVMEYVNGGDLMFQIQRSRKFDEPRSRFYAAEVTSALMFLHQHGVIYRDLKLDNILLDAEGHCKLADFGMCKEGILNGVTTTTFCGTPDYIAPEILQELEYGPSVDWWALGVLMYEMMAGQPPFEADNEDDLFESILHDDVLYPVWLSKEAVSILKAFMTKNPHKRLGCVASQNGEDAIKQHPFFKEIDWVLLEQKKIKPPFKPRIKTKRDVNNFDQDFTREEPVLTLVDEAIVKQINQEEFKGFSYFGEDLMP
Description: The compounds were tested for inhibition of PKC epsilon.
The inhibition assays were performed with a fluorescence polarization (FP) assay using the commercially available Protein Kinase C Assay Kit, Red, from Invitrogen (Product ID. No. P2941), essentially in accordance with the protocol supplied by the manufacturer. […] The isozyme PKC epsilon was also obtained from Invitrogen (Product ID No. P2282).
Staurosporine was used as a positive control (2 μM).
To perform the assay, 2 μl of a solution of the compound to be tested in DMSO (at each concentration) was added to 6 μl of a solution of the enzyme in 10 mM HEPES, 5 mM dithiotreitol, 0.1% Triton X-100, pH 7.4. The final concentration of the enzymes was 10 ng/ml.
After incubating for 30 minutes at room temperature, 4 μl of a mixture of ATP and the protein substrate in 60 mM HEPES (pH7.4), 15 mM MgCl2, 0.3 mM CaCl2, 0.06% NP40 was added.
After incubating for 80 minutes at room temperature, 3 μl of a mix solution of 500 mM EDTA (stop solution) and the Rhodamine-based PKC Red Tracer (from the Protein Kinase C Assay Kit) in BGG/phosphate buffer (pH7.4) with 0.02% NaN3 and 0.1% Triton X-100 was added and 5 μl of a the Anti-Phosphoserine antibody (also from the Protein Kinase C Assay Kit) in BGG/phosphate buffer (pH7.4) with 0.02% NaN3.
The results were fitted to a curve using the XL-Fit algorithm and […] were calculated for each fitted curve, again using the XL-Fit algorithm.

human ROCKα/ROCKII mix = biological target: T2, human ROCKα/ROCKII mix (Homo sapiens, UniProt O75116); assay: Biochemical assay for ROCK (fluorescence polarization, ROCK IMAP Kit)
T2 construct: purchased Upstate Biotechnology 14-451
T2 sequence (O75116 11-552 limits assumed): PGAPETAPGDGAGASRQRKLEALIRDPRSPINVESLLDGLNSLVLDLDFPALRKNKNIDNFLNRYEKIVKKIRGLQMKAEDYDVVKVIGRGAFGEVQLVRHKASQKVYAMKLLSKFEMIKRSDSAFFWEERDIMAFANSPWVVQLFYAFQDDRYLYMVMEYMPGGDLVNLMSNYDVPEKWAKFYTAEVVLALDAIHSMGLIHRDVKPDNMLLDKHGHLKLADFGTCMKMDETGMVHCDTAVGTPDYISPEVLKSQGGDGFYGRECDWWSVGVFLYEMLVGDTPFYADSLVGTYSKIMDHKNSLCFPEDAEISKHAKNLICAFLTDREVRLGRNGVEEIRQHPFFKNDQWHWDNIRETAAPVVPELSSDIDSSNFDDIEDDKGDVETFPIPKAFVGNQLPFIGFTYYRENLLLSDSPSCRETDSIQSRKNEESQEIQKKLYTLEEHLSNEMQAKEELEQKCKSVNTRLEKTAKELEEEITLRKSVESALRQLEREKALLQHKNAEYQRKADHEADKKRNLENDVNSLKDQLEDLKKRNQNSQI
Description: The compounds were tested for inhibition of human ROCKα/ROCKII mix.
The inhibition assays were performed with a fluorescence polarization (FP) assay using the commercially available ROCK IMAP Kit from Molecular Devices (Product ID. No. R8093), essentially in accordance with the protocol supplied by the manufacturer. […] The enzyme mix ROCKα/ROCKII was obtained from Upstate Biotechnology (Product ID No 14-451).
In summary, the compound was screened in the wells of a 384 well plate for enzymatic inhibition with concentrations varying from 100 μM to 0.3 nM using a stepwise 3 (or 2)-fold dilution.
To perform the assay, 1 μl of a solution of the compound to be tested in DMSO (at each concentration) was added to 2 μl of a solution of the enzyme in 10 mM Tris-HCl , 10 mM MgCl2, 0.1% BSA, 0.05% NaN3, pH 7.2. The final concentration of the enzyme was 2.6 nM.
After incubating for 30 minutes at room temperature, 2 μl of a mixture of ATP and the protein substrate in 10 mM Tris-HCl, 10 mM MgCl2, 0.1% BSA, 0.05% NaN3, pH 7.2 was added. The final concentration of the ATP was 10 μM and final concentration of protein substrate was 0.2 μM.
After incubating for 60 minutes at room temperature, 12 μl of the IMAP Binding Solution (mix of the IMAP Binding Buffer A (1×) and the IMAP Binding Reagent (from the ROCK IMAP kit)) was added.
The mixture thus obtained (total volume: 17 μl) was incubated for 60 minutes at room temperature, upon which the fluorescence polarization was measured using an automated plate reader (Perkin Elmer, Model Envision 2100-0010 HTS) with FP filters: excitation filter FITC FP 480 and emission filters FITC FP P-pol 535 and FITC FP S-pol 535 (Perkin-Elmer). The results were fitted to a curve using the XL-Fit algorithm and IC50 values were calculated for each fitted curve, again using the XL-Fit algorithm.

[1] = compounds of Formula XIV, Table 3
[2] = Table 2, compounds of Formula XIII

Compound: 4-(1-Amino-2- phenethylcarbamoyl-ethyl)- N-pyridin-4-yl-benzamide [Compound 281]
IC50 (PKC epsilon; [1]): 0.5 to 5 µM | IC50 (human ROCKα/ROCKII mix; [1]): 0.05 to 0.5 µM

Compound: 4-(1-Amino-2-nonanoylamino-ethyl)- N-pyridin-4-yl-benzamide [Compound 38]
IC50 (PKC epsilon; [2]): 0.5 to 5 µM | IC50 (human ROCKα/ROCKII mix; [2]): 0.05 to 0.5 µM

Compound: 4-(1-Amino-2-{[2-(2-fluoro- phenyl)-acetyl]-methyl- amino}-ethyl)- N-pyridin-4-yl-benzamide [Compound 466]
IC50 (PKC epsilon): 5 to 50 µM | IC50 (human ROCKα/ROCKII mix): 0.5 to 5 µM

Compound: 4-(1-Amino-2-{[2-(3-bromo- phenyl)-acetyl]-methyl- amino}-ethyl)- N-pyridin-4-yl-benzamide [Compound 456]
IC50 (PKC epsilon): 5 to 50 µM | IC50 (human ROCKα/ROCKII mix): 0.5 to 5 µM

Compound: 4-(1-Amino-2-{[2-(3-chloro- phenyl)-acetyl]-methyl- amino}-ethyl)- N-pyridin-4-yl-benzamide [Compound 459]
IC50 (PKC epsilon): 5 to 50 µM | IC50 (human ROCKα/ROCKII mix): 0.5 to 5 µM

Compound: 4-(1-Amino-2-{[2-(3-fluoro-4- methoxy-phenyl)-acetyl]- methyl- amino}-ethyl)- N-pyridin-4-yl-benzamide [Compound 470]
IC50 (PKC epsilon): 5 to 50 µM | IC50 (human ROCKα/ROCKII mix): 0.5 to 5 µM

Compound: 4-(1-Amino-2-{[2-(3-fluoro- phenyl)-acetyl]-methyl- amino}-ethyl)- N-pyridin-4-yl-benzamide [Compound 468]
IC50 (PKC epsilon): 5 to 50 µM | IC50 (human ROCKα/ROCKII mix): 0.5 to 5 µM

Compound: 4-(1-Amino-2-{[2-(4- hydroxy-3-nitro-phenyl)- acetyl]-methyl- amino]-ethyl)- N-pyridin-4-yl-benzamide [Compound 439]
IC50 (PKC epsilon): 5 to 50 µM | IC50 (human ROCKα/ROCKII mix): 0.05 to 0.5 µM

Compound: 4-(1-Amino-2-{[2-(4- trifluoromethyl-phenyl)- acetyl]-methyl- amino}-ethyl)- N-pyridin-4-yl-benzamide [Compound 458]
IC50 (PKC epsilon): 5 to 50 µM | IC50 (human ROCKα/ROCKII mix): 0.5 to 5 µM

Compound: 4-(1-Amino-2-{[2-(4-bromo- phenyl)-acetyl]-methyl- amino}-ethyl)- N-pyridin-4-yl-benzamide [Compound 457]
IC50 (PKC epsilon): 5 to 50 µM | IC50 (human ROCKα/ROCKII mix): 0.5 to 5 µM

Compound: 4-(1-Amino-2-{[2-(4-chloro- phenyl)-3-methyl-butyryl]- methyl- amino}-ethyl)- N-pyridin-4-yl-benzamide [Compound 461]
IC50 (PKC epsilon): 5 to 50 µM | IC50 (human ROCKα/ROCKII mix): 0.5 to 5 µM

Compound: 4-(1-Amino-2-{[2-(4-chloro- phenyl)-acetyl]-methyl- amino}-ethyl)- N-pyridin-4-yl-benzamide [Compound 460]
IC50 (PKC epsilon): 5 to 50 µM | IC50 (human ROCKα/ROCKII mix): 0.5 to 5 µM

Compound: 4-(1-Amino-2-{[2-(4-fluoro- phenyl)-acetyl]-methyl- amino}-ethyl)- N-pyridin-4-yl-benzamide [Compound 471]
IC50 (PKC epsilon): 5 to 50 µM | IC50 (human ROCKα/ROCKII mix): 0.5 to 5 µM

Compound: 4-(1-Amino-2-{[2-(5-bromo- pyridin-3-yl)-acetyl]-methyl- amino}-ethyl)- N-pyridin-4-yl-benzamide [Compound 442]
IC50 (PKC epsilon): 5 to 50 µM | IC50 (human ROCKα/ROCKII mix): 0.5 to 5 µM

Compound: 4-(1-Amino-2-{methyl-[2-(2- phenyl-thiazol-4-yl)-acetyl]- amino}-ethyl)- N-pyridin-4-yl-benzamide [Compound 445]
IC50 (PKC epsilon): 5 to 50 µM | IC50 (human ROCKα/ROCKII mix): 0.5 to 5 µM

Compound: 4-(1-amino-2- cyclohexylcarbamoyl-ethyl)- N-pyridin-4-yl-benzamide [Compound 172]
IC50 (PKC epsilon; [1]): 0.5 to 5 µM | IC50 (human ROCKα/ROCKII mix; [1]): 0.05 to 0.5 µM

Compound: 4-(1-amino-2-benzoylamino-ethyl)- N-pyridin-4-yl-benzamide [Compound 69]
IC50 (PKC epsilon; [2]): 0.5 to 5 µM | IC50 (human ROCKα/ROCKII mix; [2]): 0.05 to 0.5 µM

Compound: 4-[1-Amino-2- (benzo[1,3]dioxol-5-yl- ethylcarbamoyl)-ethyl]-N- pyridin-4-yl-benzamide [Compound 296]
IC50 (PKC epsilon; [1]): 5 to 50 µM | IC50 (human ROCKα/ROCKII mix; [1]): 0.05 to 0.5 µM

Compound: 4-[1-Amino-2-(1-(R)-p-tolyl- propylcarbamoyl)-ethyl]-N- pyridin-4-yl-benzamide [Compound 220]
IC50 (PKC epsilon; [1]): 0.5 to 5 µM | IC50 (human ROCKα/ROCKII mix; [1]): 0.05 to 0.5 µM

Compound: 4-[1-Amino-2-(1-(S)-p-tolyl- propylcarbamoyl)-ethyl]-N- pyridin-4-yl-benzamide [Compound 219]
IC50 (PKC epsilon; [1]): 0.5 to 5 µM | IC50 (human ROCKα/ROCKII mix; [1]): 0.05 to 0.5 µM

Compound: 4-[1-Amino-2-(2,4- dimethoxy- benzylcarbamoyl)-ethyl]- N-pyridin-4-yl-benzamide [Compound 241]
IC50 (PKC epsilon; [1]): 0.5 to 5 µM | IC50 (human ROCKα/ROCKII mix; [1]): 0.05 to 0.5 µM

Compound: 4-[1-Amino-2-(2-ethoxy- benzylcarbamoyl)-ethyl]- N-pyridin-4-yl-benzamide [Compound 237]
IC50 (PKC epsilon; [1]): 0.5 to 5 µM | IC50 (human ROCKα/ROCKII mix; [1]): 0.05 to 0.5 µM

Compound: 4-[1-Amino-2-(2-methoxy- benzylcarbamoyl)-ethyl]- N-pyridin-4-yl-benzamide [Compound 236]
IC50 (PKC epsilon; [1]): 0.5 to 5 µM | IC50 (human ROCKα/ROCKII mix; [1]): 0.05 to 0.5 µM

Compound: 4-[1-Amino-2-(3,4-dichloro- 6-methyl-benzylcarbamoyl)- ethyl}-N-pyridin-4-yl- benzamide [Compound 254]
IC50 (PKC epsilon; [1]): 0.5 to 5 µM | IC50 (human ROCKα/ROCKII mix; [1]): 0.05 to 0.5 µM

Compound: 4-[1-Amino-2-(4-thiophen-2- yl-benzylcarbamoyl)-ethyl]- N-pyridin-4-yl-benzamide [Compound 235]
IC50 (PKC epsilon; [1]): 5 to 50 µM | IC50 (human ROCKα/ROCKII mix; [1]): 0.05 to 0.5 µM

Compound: 4-[1-Amino-2-(benzyl- phenethyl-carbamoyl)-ethyl]- N-pyridin-4-yl-benzamide [Compound 226]
IC50 (PKC epsilon; [1]): 0.5 to 5 µM | IC50 (human ROCKα/ROCKII mix; [1]): 0.05 to 0.5 µM

Compound: 4-[1-Amino-2-(methyl- phenylacetyl-amino)-ethyl]- N-pyridin-4-yl-benzamide [Compound 420]
IC50 (PKC epsilon): 5 to 50 µM | IC50 (human ROCKα/ROCKII mix): 0.5 to 5 µM

Compound: 4-[1-Amino-2-(phenethyl- phenyl-carbamoyl)-ethyl]-N- pyridin-4-yl-benzamide [Compound 286]
IC50 (PKC epsilon; [1]): 0.5 to 5 µM | IC50 (human ROCKα/ROCKII mix; [1]): 0.05 to 0.5 µM

Compound: 4-[1-amino-2-(2-morpholin- 4-yl-ethylcarbamoyl)-ethyl]- N-pyridin-4-yl-benzamide [Compound 177]
IC50 (PKC epsilon; [1]): 5 to 50 µM | IC50 (human ROCKα/ROCKII mix; [1]): 0.05 to 0.5 µM

Compound: 4-[1-amino-2-(2-pyrazol-1-yl- ethylcarbamoyl)-ethyl]-N- pyridin-4-yl-benzamide [Compound 312]
IC50 (PKC epsilon; [1]): 0.5 to 5 µM | IC50 (human ROCKα/ROCKII mix; [1]): 0.05 to 0.5 µM

IC50 (human ROCKα/ROCKII mix): 0.5 to 5 µM
Compound: CN(CC(N)c1ccc(C(=O)Nc2ccncc2)cc1)C(=O)C1CC(=O)c2ccccc21 (centres unmarked) [Compound 508, 3-Oxo-indan-1-carboxylic acid {2-amino-2-[4-(pyridin-4-ylcarbamoyl)-phenyl]-ethyl}-methyl-amide]

IC50 (human ROCKα/ROCKII mix): 0.5 to 5 µM
Compound: CC(C)(C(=O)N1CCCC1C(N)c1ccc(C(=O)Nc2ccncc2)cc1)c1ccsc1 (centres unmarked) [Compound 550, 4-{Amino-[1-(2-methyl-2-thiophen-3-yl-propionyl)-pyrrolidin-2-yl]-methyl}-N-pyridin-4-yl-benzamide]
